In test [1] the test system is 5-LO mediated product formation. The test can be described thus: 5-LO mediated product formation in intact neutrophils stimulated with A23187 (cell-based). Set-up: species or system human. Conditions: for activity at 1 µM / activity at 10 µM: PMNL, human neutrophils, 2.5 µM A23187, means ± SE, n = 3-6; for activity at 1 µM: remaining activity at 1 µM inhibitor, read-out: 5-LO mediated product formation in intact neutrophils (PMNL) (% of control) at 1 µM; for activity at 10 µM: remaining activity at 10 µM inhibitor, read-out: 5-LO mediated product formation in intact neutrophils (PMNL) (% of control) at 10 µM; for IC50: Neutrophil, intact human neutrophils stimulated with 2.5 µM A23187, mean ± SE, n = 3-4, read-out: Inhibition of purified 5-LO activity IC50 (µM) cell based. The protocol:
(§1) Cell based and cell-free assays carried out in biological studies, immunofluorescence microscopy analysis and zymosan-induced peritonitis in mice are performed as described hereinabove (Pegola, C. and et al., British J. Pharmacology, 2014, D01:10.1111/bph.12625). In the cell based assays (intact neutrophils or monocytes), 5-LO mediated product formation is started, after pre-incubation with test compounds (or control DMSO) for 15 min. at 37 °C, with addition of Ca-ionophore A23187 (2.5 µM) to the fresh 5 x 10^6 neutrophils or monocytes suspended in 1 ml of PGC buffer (phosphate buffered saline (PBS) solution containing 1 mg ml^-1 glucose and 1mM CaCl2, pH 7.4). After the incubation for 10 min. at 37 °C, the reaction is ended with addition of 1 ml of methanol, and 30 µL 1 N HCl, 200 ng prostaglandin B1 and 500 µL PBS are added to the mixture. In cell-free assays (isolated 5-LO and cell homogenates), human recombinant 5-LO protein or 40,000g supernatant is added to 1 ml of 5-LO reaction mixture (PBS, pH 7.4, 1 mM EDTA, 1 mM ATP), and then incubated with test compounds (or control DMSO) for 10 min. at 4°C, heated to 37 °C and 2 mM CaCl2 as well as AA at certain concentrations are added. The reaction is ended as described for the cell-based assays. Resulting 5-LO mediated products are extracted and analysed by the known method of high pressure liquid chromatography (HPLC) (Pergola, C. Proc Natl. Acad. Sci. U.S.A. 2008, 105, 19881). 5-LO mediated product formation (LTB4 and all trans isomers, and 5 (S)-hydro(pero)xy-6-trans-8, 11, 14-cis-eicosatetraenoic acid, 5-H(p)ETE) is expressed as ng per 10^6 cell. Cysteinyl-LTs have not been analyzed because that the amount of C4, D4 and E4 and LTB4 oxidation products are below the detection limit.
(§2) Compounds were tested in intact human neutrophils stimulated with 2.5 µM A23187 under cell based conditions and on purified 5-LO under cell free conditions. ^aData are given as remaining activity as a percentage of control (100%) at 10 µM or 1 µM inhibitor concentrations (means ± SE, n = 3-6).
Compound 9hj inhibited 5-LO mediated product formation with IC50 of 60 nM in human neutrophils. Neutrophils are stimulated with Ca-ionophore A23187 (2.5 µM), without the addition of exogenous arachidonic acid (AA), after pre-incubation with 9hj or vehicle (0.1 % DMSO). 100% controls correspond to 275.7 ng mL^-1 of 5-LO mediated products (Figure 1).
100% controls correspond to 328.97 ng mL^-1 of 5-LO mediated products.

For test [2], the target named is T1, purified 5-LO (Homo sapiens, UniProt P09917).
T1 sequence (P09917 1-674): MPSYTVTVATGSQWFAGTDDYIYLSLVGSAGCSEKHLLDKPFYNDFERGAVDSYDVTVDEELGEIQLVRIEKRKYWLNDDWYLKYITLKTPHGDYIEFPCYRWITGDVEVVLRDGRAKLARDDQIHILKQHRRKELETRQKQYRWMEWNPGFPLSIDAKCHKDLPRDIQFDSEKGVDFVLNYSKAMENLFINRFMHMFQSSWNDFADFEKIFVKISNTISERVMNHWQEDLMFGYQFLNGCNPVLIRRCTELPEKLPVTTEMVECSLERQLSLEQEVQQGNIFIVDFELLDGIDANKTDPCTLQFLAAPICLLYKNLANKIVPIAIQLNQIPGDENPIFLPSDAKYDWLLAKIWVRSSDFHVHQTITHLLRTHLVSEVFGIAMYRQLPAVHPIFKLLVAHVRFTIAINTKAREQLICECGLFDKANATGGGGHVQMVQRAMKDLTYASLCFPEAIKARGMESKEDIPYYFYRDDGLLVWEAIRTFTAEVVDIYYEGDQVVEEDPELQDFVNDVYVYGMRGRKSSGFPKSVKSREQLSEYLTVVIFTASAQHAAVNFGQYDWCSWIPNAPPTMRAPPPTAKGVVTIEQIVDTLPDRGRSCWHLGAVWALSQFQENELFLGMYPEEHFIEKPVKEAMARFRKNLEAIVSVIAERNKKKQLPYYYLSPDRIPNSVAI
The test can be described thus: Purified / human recombinant 5-LO activity (cell-free). It counts as biochemical. Conditions: purified 5-LO under cell free conditions; mean ± SE, n = 3-4; read-out: Inhibition of purified 5-LO activity IC50 (µM) cell-free. The protocol:
as §1, §2
9hj was added 15 min before addition of 2 mM Ca^2+ plus 3 µM, 10 µM and 30 µM AA. 100% controls correspond to 200.35 ng mL^-1 for 3 µM AA, 514.36 ng mL^-1 for 10 µM AA and 537.73 ng mL^-1 for 30 µM AA.

For test [3], the target named is T1, purified 5-LO. The test is described as above. Conditions: remaining 5-LO activity (percentage of uninhibited control) at 30 µM test compound. It counts as biochemical.

For the compound `CCOC(=O)c1noc(-c2ccc(OCc3ccccc3C)cc2)c1-c1ccc(Cl)cc1` [Compound 7aj, Ethyl 4-(4-chlorophenyl)-5-(4-((2-methylbenzyl)oxy)phenyl)isoxazole-3-carboxylate], in test [1], the activity at 1 µM was 85.2 ± 0.7% and the activity at 10 µM was found to be 71.9 ± 10.3%.
For the compound `CCOC(=O)c1noc(-c2ccc(OCc3cccc(F)c3)cc2)c1-c1ccc(Cl)cc1` [Compound 7bj, Ethyl 4-(4-chlorophenyl)-5-(4-((3-fluorobenzyl)oxy)phenyl)isoxazole-3-carboxylate], in test [1], the activity at 1 µM was found to be 66.1 ± 14.3% and the activity at 10 µM stood at 55.3 ± 12.1%.
Take `CCOC(=O)c1noc(-c2ccc(OCc3ccc(C)cc3)cc2)c1-c1ccc(Cl)cc1` [Compound 7cj, Ethyl 4-(4-chlorophenyl)-5-(4-((4-methylbenzyl)oxy)phenyl)isoxazole-3-carboxylate]: in test [1], the activity at 1 µM is 78.3 ± 16.2% and the activity at 10 µM came out at 61.4 ± 12.4%.
The like results for `CCOC(=O)c1noc(-c2ccc(OCc3ccccc3C)cc2)c1-c1cccc(Cl)c1` [Compound 8aj, Ethyl 4-(3-chlorophenyl)-5-(4-((2-methylbenzyl)oxy)phenyl)isoxazole-3-carboxylate] were, in that order, 88 ± 10.2% and 83.4 ± 16.2%.
The like results for `CCOC(=O)c1noc(-c2ccc(OCc3cccc(F)c3)cc2)c1-c1cccc(Cl)c1` [Compound 8bj, Ethyl 4-(3-chlorophenyl)-5-(4-((3-fluorobenzyl)oxy)phenyl)isoxazole-3-carboxylate] were, in that order, 90.6 ± 11.5% and 80.8 ± 11.8%.
Usually IC50 stands for the midpoint of a concentration-inhibition curve. As for `Cc1ccccc1COc1ccc(-c2onc(C(=O)O)c2-c2ccc(Cl)cc2)cc1` [Compound 9aj, 4-(4-Chlorophenyl)-5-(4-((2-methylbenzyl)oxy)phenyl)isoxazole-3-carboxylic acid], in test [1], the IC50 was 1.7 ± 0.47 µM, the activity at 1 µM was 74.5 ± 8.6% and the activity at 10 µM turned out to be 13.1 ± 3.9%. For the same compound, the 50% inhibitory concentration (IC50) in test [2] was 0.48 ± 0.03 µM.
On to `O=C(O)c1noc(-c2ccc(OCc3cccc(F)c3)cc2)c1-c1ccc(Cl)cc1` [Compound 9bj, 4-(4-Chlorophenyl)-5-(4-((3-fluorobenzyl)oxy)phenyl)isoxazole-3-carboxylic acid], for which, in test [1], the IC50 turned out to be 1.29 ± 0.61 µM, the activity at 1 µM amounted to 52.3 ± 8.3% and the activity at 10 µM came out at 19.6 ± 9.5%. Further, the IC50 in test [2] turned out to be 0.38 ± 0.04 µM.
As for `Cc1ccc(COc2ccc(-c3onc(C(=O)O)c3-c3ccc(Cl)cc3)cc2)cc1` [Compound 9cj, 4-(4-Chlorophenyl)-5-(4-((4-methylbenzyl)oxy)phenyl)isoxazole-3-carboxylic acid], in test [1], the IC50 amounted to 1.4 ± 0.09 µM, the activity at 1 µM worked out at 55.8 ± 4.31% and the activity at 10 µM is 15.7 ± 4.53%. The IC50 in test [2] turned out to be 5.94 ± 0.36 µM.
One may read the remaining activity as the signal under treatment as a percentage of the control signal. `Cc1ccc(COc2ccc(-c3onc(C(=O)O)c3-c3ccc(Cl)cc3)c(C)c2)cc1` [Compound 9ck, 4-(4-Chlorophenyl)-5-(2-methyl-4-((4-methylbenzyl)oxy)phenyl)isoxazole-3-carboxylic acid]: in test [1], the IC50 is 1.2 ± 0.11 µM, the activity at 1 µM was determined as 51 ± 6.68% and the activity at 10 µM turned out to be 2.26 ± 1.86%. Besides, the IC50 in test [2] is above 30 µM. Besides, the remaining activity at 30 µM in test [3] stood at 53%.
Turning to `N#Cc1cccc(COc2ccc(-c3onc(C(=O)O)c3-c3ccc(Cl)cc3)cc2)c1` [Compound 9dj, 4-(4-Chlorophenyl)-5-(4-((3-cyanobenzyl)oxy)phenyl)isoxazole-3-carboxylic acid], in test [1], the IC50 was 4.13 ± 0.33 µM, the activity at 1 µM is 70 ± 9.14% and the activity at 10 µM stood at 6.91 ± 3.92%. The half-maximal inhibitory concentration (IC50) in test [2] was 16.3 ± 5.95 µM.
Consider `Cc1cc(OCc2cccc(C#N)c2)ccc1-c1onc(C(=O)O)c1-c1ccc(Cl)cc1` [Compound 9dk, 4-(4-Chlorophenyl)-5-(4-((3-cyanobenzyl)oxy)-2-methylphenyl)isoxazole-3-carboxylic acid], for which, in test [1], the IC50 was 2.36 ± 0.32 µM, the activity at 1 µM was determined as 77.4 ± 13.2% and the activity at 10 µM amounted to 0.42 ± 0.21%. In addition, in test [2], the IC50 was 5.01 ± 1.38 µM.
With `O=C(O)c1noc(-c2ccc(OCc3ccccc3Cl)cc2)c1-c1ccc(Cl)cc1` [Compound 9ej, 5-(4-((2-chlorobenzyl)oxy)phenyl)-4-(4-chlorophenyl)isoxazole-3-carboxylic acid], in test [1], the IC50 was found to be 1.2 ± 0.23 µM, the activity at 1 µM came to 65.7 ± 5.9% and the activity at 10 µM turned out to be 5.1 ± 1.46%. Also, the IC50 in test [2] is 6.11 ± 0.9 µM.
The like results for `O=C(O)c1noc(-c2ccc(OCc3ccccc3C(F)(F)F)cc2)c1-c1ccc(Cl)cc1` [Compound 9fj, 4-(4-Chlorophenyl)-5-(4-((2-(trifluoromethyl)benzyl)oxy)phenyl)isoxazole-3-carboxylic acid] were, in that order, 0.77 ± 0.19 µM, 52.8 ± 5.94%, 5.5 ± 2.21% and 6.04 ± 0.72 µM.
For `O=C(O)c1noc(-c2ccc(OCc3ccccn3)cc2)c1-c1ccc(Cl)cc1` [Compound 9gj, 4-(4-Chlorophenyl)-5-(4-(pyridin-2-ylmethoxy)phenyl)isoxazole-3-carboxylic acid], in test [1], the IC50 is 4.09 ± 0.12 µM, the activity at 1 µM worked out at 82.1 ± 15.2% and the activity at 10 µM was 21.3 ± 8.34%. The concentration for half-maximal inhibition (IC50) in test [2] worked out at 7.39 ± 2.45 µM.
Regarding `Cc1ccccc1COc1ccc(-c2onc(C(=O)O)c2-c2cccc(Cl)c2)cc1` [Compound 10aj, 4-(3-Chlorophenyl)-5-(4-((2-methylbenzyl)oxy)phenyl)isoxazole-3-carboxylic acid], in test [1], the IC50 stood at 2.08 ± 0.33 µM, the activity at 1 µM amounted to 84.5 ± 9.1% and the activity at 10 µM is 0.7 ± 0.7%. Further, the IC50 in test [2] is 0.5 ± 0.03 µM.
Consider `O=C(O)c1noc(-c2ccc(OCc3cccc(F)c3)cc2)c1-c1cccc(Cl)c1` [Compound 10bj, 4-(3-Chlorophenyl)-5-(4-((3-fluorobenzyl)oxy)phenyl)isoxazole-3-carboxylic acid], for which, in test [1], the IC50 turned out to be 1.64 ± 0.11 µM, the activity at 1 µM was 66.7 ± 8.5% and the activity at 10 µM was 8.4 ± 5.1%. Besides, the IC50 in test [2] turned out to be 0.38 ± 0.03 µM.
On to `Cc1cc(OCc2cccc(F)c2)ccc1-c1onc(C(=O)O)c1-c1cccc(Cl)c1` [Compound 10bk, 4-(3-Chlorophenyl)-5-(4-((3-fluorobenzyl)oxy)-2-methylphenyl)isoxazole-3-carboxylic acid], for which, in test [1], the IC50 came out at 0.82 ± 0.19 µM, the activity at 1 µM worked out at 48.6 ± 7.9% and the activity at 10 µM came to 9.8 ± 3.6%. Further, the IC50 in test [2] worked out at 1.12 ± 0.14 µM.

(Values after patent publication EP2949653A1, “ISOXAZOLE DERIVATIVES AS LEUKOTRIENE BIOSYNTHESIS INHIBITORS” (Banoglu, Erden, priority 2014, dated 2015).)
